Measured values as given in patent publication US11214803B2, “Modulators of YAP1 expression” (Ionis Pharmaceuticals, Inc., priority 2019, dated 2022).
Strand notation (5' to 3'): a small letter for the sugar, then the base; units joined by * are phosphorothioate-linked, units joined directly phosphodiester-linked; [ ] holds rarer units or linkages, { } end groups; capitals alone tell only the bases. k = constrained ethyl (cEt); [5mC] = 5-methylcytosine; d = 2'-deoxy (DNA)

These substances were tested on Yap1 mRNA (assay: Antisense inhibition of human Yap1 in A-431 cells by cEt gapmers, single dose (Example 2, RTS4814)). Conditions: A-431 cells, 5,000 cells per well, free uptake, 2,000 nM modified oligonucleotide, approx. 48 hours, RTS4814, normalized to RIBOGREEN; Table 4; asterisk (*) = targets amplicon region of primer probe set.
Type: cell-based
Procedure, shortened: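 A-431 cells (5,000/well) received 2,000 nM oligonucleotide by free uptake for about 48 h. Yap1 mRNA was then quantified by RT-qPCR with primer probe set RTS4814, normalized to RIBOGREEN total RNA, and reported as % of untreated control; asterisked values mark oligos inside the amplicon.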

Substance | YAP1 (% UTC)
716370 (k[5mC]*kA*kG*dT*dG*d[5mC]*d[5mC]*dT*dG*d[5mC]*dA*dT*d[5mC]*kA*kG*kT; antisense) [Compound 716370] | 25
716478 (kT*kA*kT*dT*dT*dT*dA*dA*dT*d[5mC]*dT*dA*dG*kT*k[5mC]*kG; antisense) [Compound 716478] | 46
716463 (kG*kA*k[5mC]*dT*dG*d[5mC]*d[5mC]*d[5mC]*d[5mC]*dA*dA*d[5mC]*d[5mC]*kA*kG*kA; antisense) [Compound 716463] | 64
716484 (k[5mC]*kA*k[5mC]*dT*dT*dT*dT*d[5mC]*d[5mC]*dA*dG*d[5mC]*dT*kA*kA*k[5mC]; antisense) [Compound 716484] | 35

Same assay, conditions: Table 5; A-431 cells, 5,000 cells per well, free uptake, 2,000 nM modified oligonucleotide, approx. 48 hours; RTS4814; normalized to RIBOGREEN; Yap1 mRNA relative to untreated control cells

Substance | YAP1 (% UTC)
716431 (kA*kA*kT*dG*dA*dT*dT*dG*dG*dT*dG*dA*dA*k[5mC]*kA*kT; antisense) [Compound 716431] | 55
716398 (kT*kA*kT*dT*d[5mC]*d[5mC]*dG*d[5mC]*dA*dT*dT*dG*d[5mC]*k[5mC]*kT*kG; antisense) [Compound 716398] | 70
716413 (kT*k[5mC]*k[5mC]*dA*dA*dG*dG*dT*d[5mC]*d[5mC]*dA*d[5mC]*dA*kT*kT*kT; antisense) [Compound 716413] | 79

Same assay, conditions: Table 6; A-431 cells, 5,000 cells per well, free uptake, 2,000 nM modified oligonucleotide, approx. 48 hours; RTS4814; normalized to RIBOGREEN; Yap1 mRNA relative to untreated control cells

Substance | YAP1 (% UTC)
716438 (kA*kT*kT*dT*dT*dT*dG*dG*d[5mC]*dT*dT*dG*dT*k[5mC]*kA*kG; antisense) [Compound 716438] | 32
716453 (kG*kG*kT*dA*dA*dA*dA*dA*dA*dA*dA*d[5mC]*d[5mC]*kA*kG*kG; antisense) [Compound 716453] | 87
716483 (k[5mC]*kA*kA*dA*dA*d[5mC]*d[5mC]*dT*dT*dA*dT*dA*dG*kT*kA*kT; antisense) [Compound 716483] | 159

Same assay, conditions: Table 18; A-431 cells, 5,000 cells per well, free uptake, 2,000 nM modified oligonucleotide, approx. 48 hours; RTS4814; normalized to RIBOGREEN; Yap1 mRNA as percent of untreated control

Substance | YAP1 (% UTC)
1075684 (kT*k[5mC]*kT*dG*dA*dA*dA*dA*dA*dG*dT*dT*dA*kT*kG*k[5mC]; antisense) [Compound 1075684] | 78
1075044 (antisense kA*kA*kT*dT*dA*dG*dA*d[5mC]*dT*d[5mC]*d[5mC]*d[5mC]*d[5mC]*k[5mC]*kA*kA) [Compound 1075044] | 58

Same assay, conditions: Table 19; A-431 cells, 5,000 cells per well, free uptake, 2,000 nM modified oligonucleotide, approx. 48 hours; RTS4814; normalized to RIBOGREEN; Yap1 mRNA as percent of untreated control

Substance | YAP1 (% UTC)
1075333 (kA*kG*kT*dT*dA*dA*d[5mC]*dA*dA*dA*dG*d[5mC]*dG*kG*kG*kT; antisense) [Compound 1075333] | 14
1075973 (k[5mC]*k[5mC]*kG*d[5mC]*dA*dA*d[5mC]*dA*d[5mC]*d[5mC]*dA*dT*dT*k[5mC]*kT*kT; antisense) [Compound 1075973] | 8
1075141 (antisense kT*kA*kT*dA*d[5mC]*dG*dA*dG*dA*dA*dG*dT*dT*kG*kA*kA) [Compound 1075141] | 54
1075781 (k[5mC]*kA*kT*dA*dT*dA*dT*dT*dG*dT*dG*dA*d[5mC]*kT*kT*k[5mC]; antisense) [Compound 1075781] | 2
1076133 (k[5mC]*kA*kT*dA*d[5mC]*dT*dA*dA*dT*dT*dT*dG*dG*kT*kA*kA; antisense) [Compound 1076133] | 60

Same assay, conditions: Table 21; Yap1 mRNA, percent of untreated control; 3-10-3 cEt gapmers targeting SEQ ID NO.: 1 and 2

Substance | YAP1 (% UTC)
1074375 (antisense kG*k[5mC]*kA*dG*dG*dG*dT*dG*d[5mC]*dT*dT*dT*dG*kG*kT*kT) [Compound 1074375] | 33
1075463 (antisense k[5mC]*kT*kT*dA*dA*dT*d[5mC]*d[5mC]*dA*dA*dA*dG*d[5mC]*kT*kT*k[5mC]) [Compound 1075463] | 34

Same assay, conditions: Table 23; Yap1 mRNA as percent of untreated control; 3-10-3 cEt gapmers; single dose

Substance | YAP1 (% UTC)
1074409 (antisense kG*kG*kA*dT*dT*dA*dA*dA*dG*dT*dA*dT*d[5mC]*kT*kT*kG) [Compound 1074409] | 6
1075945 (kG*kT*kA*dT*dT*dA*dG*dG*dA*dA*d[5mC]*dA*dG*kA*kT*k[5mC]; antisense) [Compound 1075945] | 11

Same assay, conditions: Table 24; Yap1 mRNA as percent of untreated control; 3-10-3 cEt gapmers targeting SEQ ID NO.: 1, and 2

Substance | YAP1 (% UTC)
1075370 (k[5mC]*kT*kT*dA*d[5mC]*dG*dA*dA*dT*d[5mC]*dA*d[5mC]*dA*kT*kA*kT; antisense) [Compound 1075370] | 32
1074538 (antisense kA*kT*k[5mC]*d[5mC]*dA*d[5mC]*dA*dG*dT*dA*dA*dT*dA*kG*k[5mC]*kT) [Compound 1074538] | 31
1076042 (k[5mC]*kT*kT*dA*dA*dG*d[5mC]*dA*dA*dG*dA*dG*dT*k[5mC]*k[5mC]*kA; antisense) [Compound 1076042] | 35
1074602 (antisense kT*k[5mC]*k[5mC]*dA*dG*d[5mC]*dT*dA*dA*d[5mC]*dT*d[5mC]*dA*kA*kA*kA) [Compound 1074602] | 24
1076394 (k[5mC]*k[5mC]*kT*dA*dA*dA*dT*dT*dA*dG*dA*d[5mC]*dT*kT*kG*kA; antisense) [Compound 1076394] | 20

Same assay, conditions: Table 25; Yap1 mRNA as percent of untreated control; 3-10-3 cEt gapmers targeting SEQ ID NO.: 1, and 2

Substance | YAP1 (% UTC)
1075819 (kG*kT*kA*dT*dA*dT*d[5mC]*d[5mC]*dG*dT*dT*d[5mC]*dT*k[5mC]*kA*kT; antisense) [Compound 1075819] | 2
1074507 (kA*kT*kA*dA*dT*d[5mC]*dG*dA*dG*dA*dT*dT*dT*kA*kA*kA; antisense) [Compound 1074507] | 74
1074635 (antisense kT*k[5mC]*k[5mC]*d[5mC]*dA*dA*dG*d[5mC]*dT*dG*dA*dG*dG*k[5mC]*kT*kT) [Compound 1074635] | 31
1075467 (antisense k[5mC]*kA*kT*dT*dA*dA*dT*dG*d[5mC]*d[5mC]*dA*dT*d[5mC]*k[5mC]*kA*kA) [Compound 1075467] | 60

Same assay, conditions: Table 32; Yap1 mRNA, percent of untreated control; 3-10-3 cEt gapmers targeting SEQ ID NO.: 1, and 2

Substance | YAP1 (% UTC)
1076338 (antisense k[5mC]*kA*kT*dT*dA*dA*dA*d[5mC]*d[5mC]*dA*dG*dG*dG*kA*k[5mC]*kT) [compound 1076338] | 33
1076050 (k[5mC]*kT*kT*dT*dA*dG*dA*dT*dT*dA*dA*dA*dG*kG*k[5mC]*kT; antisense) [compound 1076050] | 45

Same assay, conditions: Table 33; Yap1 mRNA, percent of untreated control; 3-10-3 cEt gapmers targeting SEQ ID NO.: 1, and 2

Substance | YAP1 (% UTC)
1075411 (antisense k[5mC]*kA*kA*dA*dA*dA*dG*dG*dG*dT*dA*dA*dG*kG*k[5mC]*kA) [compound 1075411] | 39
1076083 (k[5mC]*kG*k[5mC]*dT*dA*dT*dA*dA*dA*dG*dT*dG*dG*k[5mC]*kA*kT; antisense) [compound 1076083] | 46
1075955 (kG*kA*k[5mC]*d[5mC]*dT*dA*dT*dA*dA*dT*dA*d[5mC]*dA*kG*kA*kA; antisense) [compound 1075955] | 85
1075443 (antisense kG*kA*kT*dT*dA*dA*d[5mC]*dA*dG*dA*dG*d[5mC]*dT*kA*kG*kA) [compound 1075443] | 29

Same assay, conditions: Yap1 mRNA as percent of untreated control; A-431 cells; 3-10-3 cEt gapmers targeting SEQ ID NO.: 1, and 2; Table 31

Substance | YAP1 (% UTC)
1074769 (kT*k[5mC]*kT*dT*dA*dT*d[5mC]*d[5mC]*d[5mC]*dA*dA*dT*dG*k[5mC]*kT*kA; antisense) [compound 1074769] | 12
1074353 (antisense kG*kA*k[5mC]*dA*d[5mC]*dT*dG*dT*dA*dG*d[5mC]*dT*dG*k[5mC]*kT*k[5mC]) [compound 1074353] | 17
1076497 (kA*kA*kA*dG*dA*dA*dT*dA*d[5mC]*d[5mC]*dA*dA*d[5mC]*k[5mC]*kT*kG; antisense) [compound 1076497] | 72
1075057 (antisense k[5mC]*k[5mC]*kT*dT*dA*dG*dG*dA*dG*dT*dA*dG*dA*k[5mC]*kT*kG) [compound 1075057] | 14
